Reference: ChEMBL document CHEMBL1681651, “A broad spectrum anticancer nucleoside with selective toxicity against human colon cells in vitro” (2011)

Assays:
Assay type in all cases: functional
[1] = system: HL-60(TB); assay: Growth inhibition of human HL-60(TB) cells assessed as cell growth at 1 mM after 48 hrs by SRB assay; details: HL-60, 48 h, read-out: Activity
[2] = Growth inhibition of human Hs 578T cells assessed as cell growth at 100 uM after 48 hrs by SRB assay; details: read-out: Activity
[3] = system: K562; assay: Growth inhibition of human K562 cells assessed as cell growth at 1 uM after 48 hrs by SRB assay; details: K562, 48 h, read-out: Activity
[4] = system: HL-60(TB); assay: Growth inhibition of human HL-60(TB) cells assessed as cell growth at 1 uM after 48 hrs by SRB assay; details: HL-60, 48 h, read-out: Activity
[5] = system: SW-620; assay: Growth inhibition of human SW620 cells after 48 hrs by […] growth inhibition assay; details: SW-620, 48 h
[6] = system: HL-60(TB); assay: Growth inhibition of human HL-60(TB) cells assessed as cell growth at 100 uM after 48 hrs by SRB assay; details: HL-60, 48 h, read-out: Activity
[7] = Growth inhibition of human Hs 578T cells assessed as cell growth at 1 mM after 48 hrs by SRB assay; details: read-out: Activity
[8] = system: PC-3; assay: Growth inhibition of human PC3 cells assessed as cell growth at 1 uM after 48 hrs by SRB assay; details: PC-3, 48 h, read-out: Activity
[9] = system: MOLT-4; assay: Growth inhibition of human MOLT4 cells assessed as cell growth at 100 uM after 48 hrs by SRB assay; details: MOLT-4, 48 h, read-out: Activity
[10] = system: K562; assay: Growth inhibition of human K562 cells assessed as cell growth at 1 mM after 48 hrs by SRB assay; details: K562, 48 h, read-out: Activity
[11] = system: SR; assay: Growth inhibition of human SR cells assessed as cell growth at 1 mM after 48 hrs by SRB assay; details: read-out: Activity
[12] = system: NCI/ADR-RES; assay: Growth inhibition of human NCI/ADR-RES cells assessed as cell growth at 1 mM after 48 hrs by SRB assay; details: read-out: Activity
[13] = Growth inhibition of human Hs 578T cells assessed as cell growth at 0.1 uM after 48 hrs by SRB assay; details: read-out: Activity
[14] = system: SR; assay: Growth inhibition of human SR cells assessed as cell growth at 0.1 uM after 48 hrs by SRB assay; details: read-out: Activity
[15] = system: SK-MEL-28; assay: Growth inhibition of human SK-MEL-28 cells assessed as cell growth at 1 uM after 48 hrs by SRB assay; details: SK-MEL-28, 48 h, read-out: Activity
[16] = system: SR; assay: Growth inhibition of human SR cells assessed as cell growth at 1 uM after 48 hrs by SRB assay; details: read-out: Activity
[17] = system: MDA-MB-468; assay: Growth inhibition of human MDA-MB-468 cells assessed as cell growth at 1 uM after 48 hrs by SRB assay; details: MDA-MB-468, 48 h, read-out: Activity
[18] = system: MDA-MB-468; assay: Growth inhibition of human MDA-MB-468 cells assessed as cell growth at 0.1 uM after 48 hrs by SRB assay; details: MDA-MB-468, 48 h, read-out: Activity
[19] = system: MDA-MB-468; assay: Growth inhibition of human MDA-MB-468 cells assessed as cell growth at 1 mM after 48 hrs by SRB assay; details: MDA-MB-468, 48 h, read-out: Activity
[20] = system: MDA-MB-468; assay: Growth inhibition of human MDA-MB-468 cells assessed as cell growth at 10 uM after 48 hrs by SRB assay; details: MDA-MB-468, 48 h, read-out: Activity
[21] = system: MDA-MB-468; assay: Growth inhibition of human MDA-MB-468 cells assessed as cell growth at 100 uM after 48 hrs by SRB assay; details: MDA-MB-468, 48 h, read-out: Activity
[22] = read-out: LC50 (the source's name)
[23] = read-out: pLC50 (the source's name) (converted)

| Compound | growth at 1000 µM [1] | growth at 100 µM [2] | growth at 1 µM [3] | growth at 1 µM [4] | GI50 ([5]; read-out: GI50) | CC50 [5, 22] | TGI ([5]; read-out: TGI) | GI50 ([5]; read-out: pGI50 (converted)) | CC50 [5, 23] | TGI ([5]; read-out: pTGI (converted)) | growth at 100 µM [6] | growth at 1000 µM [7] | growth at 1 µM [8] | growth at 100 µM [9] | growth at 1000 µM [10] | growth at 1000 µM [11] | growth at 1000 µM [12] | growth at 0.1 µM [13] | growth at 0.1 µM [14] | growth at 1 µM [15] | also measured |
| --- | --- | --- | --- | --- | --- | --- | --- | --- | --- | --- | --- | --- | --- | --- | --- | --- | --- | --- | --- | --- | --- |
| CCOC(=O)C[C@H]1[C@@H](O[Si](C)(C)C(C)(C)C)[C@H](n2cnc3c(NC(=O)Nc4ccccc4)ncnc32)O[C@@H]1CNC(=O)NC | 22% | 18% | 93% | 110% | 4.8 µM | > 100 µM | 28.4 µM | 4.79 µM | > 100 µM | 28.2 µM | -5% | -7% | 126% | 8% | -17% | -34% | 59% | 94% | 82% | 106% | growth at 1 µM [16]: 70% |
| CNC(=O)NC[C@H]1O[C@@H](n2cnc3c(NC(=O)Nc4ccccc4)ncnc32)[C@H](O[Si](C)(C)C(C)(C)C)[C@@H]1CC(=O)N(C)OC | -58% | 40% | 95% | 86% | > 100 µM | > 100 µM | > 100 µM | > 100 µM | > 100 µM | > 100 µM | -48% | 12% | – | -2% | 24% | -56% | 55% | 98% | 85% | 106% | growth at 1 µM [16]: 89% |
| CNC(=O)NC[C@H]1O[C@@H](n2cnc3c(NC(=O)Nc4ccccc4)ncnc32)[C@H](O[Si](C)(C)C(C)(C)C)[C@@H]1O[Si](C)(C)C(C)(C)C | – | – | – | – | – | – | – | – | – | – | – | – | 91% | – | – | – | – | – | – | – | growth at 1 µM [17]: 104%; growth at 0.1 µM [18]: 101%; growth at 1000 µM [19]: -35%; growth at 10 µM [20]: 99%; growth at 100 µM [21]: 6% |
| CNC(=O)OC[C@H]1O[C@@H](n2cnc3c(NC(=O)Nc4ccccc4)ncnc32)[C@H](O[Si](C)(C)C(C)(C)C)[C@@H]1O[Si](C)(C)C(C)(C)C | – | – | – | – | – | – | – | – | – | – | – | – | – | – | – | – | – | – | – | – | growth at 10 µM [20]: 104% |
